Target: CXCR3 (Macaca fascicularis, UniProt A0A2K5UV19)
Test: functional cellular assay measuring calcium flux in CXCR3 transfected cells (block of CXCR3/IP-10 interaction)
Type: cell-based, Cyno
Details: IP-10 induced intracellular calcium flux; Cyno-CHO cells stably expressing recombinant CXCR3 and G-alpha-16; IP-10 at EC80; read-out: IC50
Method in brief: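 Cyno-CHO cells stably expressing CXCR3 and G-alpha-16, loaded with Ca-4 dye in HBSS/10 mM HEPES pH 7.4 with 2 mM probenecid for 1 h at 37° C. Compound (final 10 microM) preincubated 15 min at room temperature, then IP-10 at EC80 added; calcium flux read at 480/540 nm.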

CXCR3, sequence (A0A2K5UV19 entry or part of it): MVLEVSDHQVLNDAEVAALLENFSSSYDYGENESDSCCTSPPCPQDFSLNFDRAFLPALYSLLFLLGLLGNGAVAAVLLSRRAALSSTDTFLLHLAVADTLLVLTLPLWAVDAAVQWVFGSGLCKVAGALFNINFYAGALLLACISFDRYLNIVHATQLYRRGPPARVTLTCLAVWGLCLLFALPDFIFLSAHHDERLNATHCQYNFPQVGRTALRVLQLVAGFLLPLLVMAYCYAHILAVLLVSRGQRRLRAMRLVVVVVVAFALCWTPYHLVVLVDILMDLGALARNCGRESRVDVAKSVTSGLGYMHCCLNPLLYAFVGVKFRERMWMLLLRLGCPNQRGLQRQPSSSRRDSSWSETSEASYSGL

Structure (SMILES) | IC50 [nM]
COc1cc(NC(=O)c2cc(F)ccc2N2CCN(C(=O)Cn3nc(C)cc3C)[C@@H](C)C2)ccn1 [2-{(3S)-4-[(3,5-dimethyl-1H-pyrazol-1-yl)acetyl]-3-methylpiperazin-1-yl}-5-fluoro-N-(2-methoxypyridin-4-yl)benzamide] | 12
Cc1cc(C)n(CC(=O)N2CCN(c3ccc(F)cc3C(=O)Nc3nc4c(s3)CN(C)CC4)C[C@@H]2C)n1 [2-{(3S)-4-[(3,5-dimethyl-1H-pyrazol-1-yl)acetyl]-3-methylpiperazin-1-yl}-5-fluoro-N-(5-methyl-4,5,6,7-tetrahydro[1,3]thiazolo[5,4-c]pyridin-2-yl)benzamide] | 12
Cc1cc(C)n(CC(=O)N2CCN(c3ccccc3-c3ccc(C#N)cc3)CC2)n1 [2′-{4-[2-(3,5-Dimethyl-pyrazol-1-yl)-acetyl]-piperazin-1-yl}-biphenyl-4-carbonitrile] | 100
COc1ccc(C(=O)NCC(=O)N2CCN(c3ccccc3-c3cnc(N4CCOCC4)nc3)CC2)cc1OC [3,4-Dimethoxy-N-(2-{4-[2-(2-morpholin-4-yl-pyrimidin-5-yl)-phenyl]-piperazin-1-yl}-2-oxo-ethyl)-benzamide] | 68
COc1ncc(-c2cc(C#N)ccc2N2CCN(C(=O)Cn3ccc4cccnc43)CC2)cn1 [3-(2-Methoxy-pyrimidin-5-yl)-4-[4-(2-pyrrolo[2,3-b]pyridin-1-yl-acetyl)-piperazin-1-yl]-benzonitrile] | 7
CNc1ncc(-c2cc(C#N)ccc2N2CCN(C(=O)Cn3ccc4cccnc43)CC2)cn1 [3-(2-Methylamino-pyrimidin-5-yl)-4-[4-(2-pyrrolo[2,3-b]pyridin-1-yl-acetyl)-piperazin-1-yl]-benzonitrile] | 8
CSc1ncc(-c2cc(C#N)ccc2N2CCN(C(=O)Cn3ccc4cccnc43)CC2)cn1 [3-(2-Methylsulfanyl-pyrimidin-5-yl)-4-[4-(2-pyrrolo[2,3-b]pyridin-1-yl-acetyl)-piperazin-1-yl]-benzonitrile] | 4
N#Cc1ccc(N2CCN(C(=O)Cn3ccc4cccnc43)CC2)c(-c2cnc(N3CCOCC3)nc2)c1 [3-(2-Morpholin-4-yl-pyrimidin-5-yl)-4-[4-(2-pyrrolo[2,3-b]pyridin-1-yl-acetyl)-piperazin-1-yl]-benzonitrile] | 8
COc1ncc(-c2cc(C#N)ccc2N2CCN(C(=O)Cn3nc(C)cc3C)CC2)cn1 [4-{4-[2-(3,5-Dimethyl-pyrazol-1-yl)-acetyl]-piperazin-1-yl}-3-(2-methoxy-pyrimidin-5-yl)-benzonitrile] | 150
CSc1ncc(-c2cc(C#N)ccc2N2CCN(C(=O)Cn3nc(C)cc3C)CC2)cn1 [4-{4-[2-(3,5-Dimethyl-pyrazol-1-yl)-acetyl]-piperazin-1-yl}-3-(2-methylsulfanyl-pyrimidin-5-yl)-benzonitrile] | 36
Cc1cc(C)n(CC(=O)N2CCN(c3ccc(C#N)cc3-c3cnc(N4CCOCC4)nc3)CC2)n1 [4-{4-[2-(3,5-Dimethyl-pyrazol-1-yl)-acetyl]-piperazin-1-yl}-3-(2-morpholin-4-yl-pyrimidin-5-yl)-benzonitrile] | 18
Cc1cn(CC(=O)N2CCN(c3ccccc3-c3ccc(C#N)nc3)CC2)c(C)n1 [5-(2-{4-[2-(2,4-Dimethyl-imidazol-1-yl)-acetyl]-piperazin-1-yl}-phenyl)-pyridine-2-carbonitrile] | 47
Cc1cc(C)n(CC(=O)N2CCN(c3ccccc3-c3ccc(C#N)nc3)CC2)n1 [5-(2-{4-[2-(3,5-Dimethyl-pyrazol-1-yl)-acetyl]-piperazin-1-yl}-phenyl)-pyridine-2-carbonitrile] | 18
Cc1cc(C)n(CC(=O)N2CCN(c3ccccc3-c3cnc(C#N)nc3)CC2)n1 [5-(2-{4-[2-(3,5-Dimethyl-pyrazol-1-yl)-acetyl]-piperazin-1-yl}-phenyl)-pyrimidine-2-carbonitrile] | 43
Cc1cc(C(F)(F)F)nn1CC(=O)N1CCN(c2ccccc2-c2ccc(C#N)nc2)CC1 [5-(2-{4-[2-(5-Methyl-3-trifluoromethyl-pyrazol-1-yl)-acetyl]-piperazin-1-yl}-phenyl)-pyridine-2-carbonitrile] | 71
N#Cc1ccc(-c2ccccc2N2CCN(C(=O)CNc3nccs3)CC2)cn1 [5-(2-{4-[2-(Thiazol-2-ylamino)-acetyl]-piperazin-1-yl}-phenyl)-pyridine-2-carbonitrile] | 47
C[C@@H]1CN(c2ccc(F)cc2C(=O)Nc2nc3c(s2)CN(C)CC3)CCN1C(=O)Cn1ccc2cccnc21 [5-fluoro-2-[(3R)-3-methyl-4-(1H-pyrrolo[2,3-b]pyridin-1-ylacetyl)piperazin-1-yl]-N-(5-methyl-4,5,6,7-tetrahydro[1,3]thiazolo[5,4-c]pyridin-2-yl)benzamide] | 20
COc1cc(NC(=O)c2cc(F)ccc2N2CCN(C(=O)Cn3cnc4cccnc43)[C@H](C)C2)ccn1 [5-fluoro-2-[(3R)-4-(3H-imidazo[4,5-b]pyridin-3-ylacetyl)-3-methylpiperazin-1-yl]-N-(2-methoxypyridin-4-yl)benzamide] | 7
C[C@@H]1CN(c2ccc(F)cc2C(=O)Nc2nc3c(s2)CN(C)CC3)CCN1C(=O)Cn1cnc2cccnc21 [5-fluoro-2-[(3R)-4-(3H-imidazo[4,5-b]pyridin-3-ylacetyl)-3-methylpiperazin-1-yl]-N-(5-methyl-4,5,6,7-tetrahydro[1,3]thiazolo[5,4-c]pyridin-2-yl)benzamide] | 15
C[C@H]1CN(c2ccc(F)cc2C(=O)Nc2nc3c(s2)CN(C)CC3)CCN1C(=O)Cn1ccc2cccnc21 [5-fluoro-2-[(3S)-3-methyl-4-(1H-pyrrolo[2,3-b]pyridin-1-ylacetyl)piperazin-1-yl]-N-(5-methyl-4,5,6,7-tetrahydro[1,3]thiazolo[5,4-c]pyridin-2-yl)benzamide] | 17
COc1cc(NC(=O)c2cc(F)ccc2N2CCN(C(=O)Cn3cnc4cccnc43)[C@@H](C)C2)ccn1 [5-fluoro-2-[(3S)-4-(3H-imidazo[4,5-b]pyridin-3-ylacetyl)-3-methylpiperazin-1-yl]-N-(2-methoxypyridin-4-yl)benzamide] | 11
C[C@H]1CN(c2ccc(F)cc2C(=O)Nc2nc3c(s2)CN(C)CC3)CCN1C(=O)Cn1cnc2cccnc21 [5-fluoro-2-[(3S)-4-(3H-imidazo[4,5-b]pyridin-3-ylacetyl)-3-methylpiperazin-1-yl]-N-(5-methyl-4,5,6,7-tetrahydro[1,3]thiazolo[5,4-c]pyridin-2-yl)benzamide] | 15
C[C@@H]1CN(c2ccc(F)cc2C(=O)Nc2nc3c(s2)CN(C)CC3)CCN1C(=O)CN1Cc2ccccc2C1=O [5-fluoro-2-{(3R)-3-methyl-4-[(1-oxo-1,3-dihydro-2H-isoindol-2-yl)acetyl]piperazin-1-yl}-N-(5-methyl-4,5,6,7-tetrahydro[1,3]thiazolo[5,4-c]pyridin-2-yl)benzamide] | 15
C[C@@H]1CN(c2ccc(F)cc2C(=O)Nc2nc3c(s2)CN(C)CC3)CCN1C(=O)Cn1c(=O)[nH]c2ccccc21 [5-fluoro-2-{(3R)-3-methyl-4-[(2-oxo-2,3-dihydro-1H-benzimidazol-1-yl)acetyl]piperazin-1-yl}-N-(5-methyl-4,5,6,7-tetrahydro[1,3]thiazolo[5,4-c]pyridin-2-yl)benzamide] | 18

From patent publication US8450317B2, “CXCR3 receptor antagonists” (Boehringer Ingelheim International GmbH, priority 2009, dated 2013)
